This is an account of results in PubChem BioAssay (NCI).

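Five concentrations, 48 hours, 96-well plates. At the GI50, growth is halved. TGI marks complete inhibition of growth.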

Experiment in all cases: inhibition of tumour cell growth, NCI panel, 48 h
In assay [1] the test system is SR leukemia.
Assay [2] deals with HCT-15 colon.
Assay [3] relates to UACC-257 melanoma.
The subject of assay [4] is IGROV1 ovarian.
The test system of assay [5] is BT-549 breast.
Assay [6] concerns U251 CNS.
Assay [7] relates to MDA-MB-435.
In assay [8] the test system is CCRF-CEM leukemia.
Assay [9] concerns HCT-116 colon.
Assay [10] concerns SK-MEL-5 melanoma.

Regarding `COC(=O)[C@H](Cc1cn(C)cn1)NC(=O)[C@@H](NC(=O)Nc1cc(C(F)(F)F)cc(C(F)(F)F)c1)C(C)(C)C`, the GI50 in [1], in assay [2], in assay [3], in [4], in assay [5] and in assay [6] was above 10 µM each time. The GI50 in assay [7], in assay [8], in assay [9] and in [10] was above 10 µM throughout. In addition, the TGI in [1], in assay [2], in [3], in assay [4], in assay [5] and in assay [6] was above 10 µM throughout. Further, the TGI in assay [7], in [8], in assay [9] and in assay [10] was above 10 µM each time.
On to `CCCC(=O)Nc1c(I)cc(I)c(CC(CC)C(=O)O)c1I` (stereo not given), for which the GI50 in [1], in assay [2], in [3], in assay [4], in assay [5] and in assay [6] was above 100 µM in each case. Moreover, the GI50 in assay [7], in assay [8], in [9] and in [10] was above 100 µM in each case. Moreover, the TGI in assay [1], in assay [2], in assay [3], in [4], in assay [5] and in assay [6] was above 100 µM in each case. The TGI in assay [7], in assay [8], in [9] and in assay [10] was above 100 µM in each case.
With `CCCCCCC/C=C1\CCC(CN(C)C)C1=O` (stereo not given), the TGI in assay [1] is 9.17 µM; in [2], 21.7 µM; in assay [3], 29.4 µM; in assay [4] it was 36.3 µM; in assay [5], 28 µM; in assay [6] it was 32.1 µM. Further, the TGI in assay [7] is 18.8 µM; in assay [8], 13 µM; in [9], 22.3 µM; in [10] it was 34 µM.
For `Cc1ccccc1C[P+](c1ccccc1)(c1ccccc1)c1ccccc1`, the GI50 in [1] is 2.02 µM; in assay [2] it was 27.9 µM; in assay [3] it was 0.371 µM; in assay [4] it was 2.42 µM; in assay [5], 2.7 µM; in [6], 1.35 µM. For the same molecule, the GI50 in assay [7] is 0.938 µM; in assay [8], 2.04 µM; in assay [9], 0.896 µM; in assay [10], 0.375 µM. Besides, the TGI in assay [1] is above 100 µM; in assay [2] it was above 100 µM; in assay [3] it was 4.65 µM; in [4] it was above 100 µM; in assay [5] it was 71.7 µM; in [6], above 100 µM. For the same molecule, the TGI in [7] was 21.3 µM; in assay [8], above 100 µM; in assay [9] it was above 100 µM; in [10], 1.58 µM.
As for `N#Cc1ccc(NC(=O)Nc2nc3ccc(OC(F)(F)F)cc3s2)cc1`, the GI50 in [1] was 0.736 µM; in assay [2], 1.38 µM; in assay [3] it was 1.35 µM; in [4], 2 µM; in [5], 2.78 µM; in assay [6] it was 1.43 µM. The GI50 in [7] is 1.42 µM; in [8] it was 1.51 µM; in assay [9] it was 0.552 µM; in [10], 1.15 µM. The TGI came out at 5.77 µM in assay [1]; 6.45 µM in assay [2]; 6.4 µM in assay [3]; 16.1 µM in [4]; 9.36 µM in assay [5]; 11.4 µM in assay [6]. Besides, the TGI is 6.79 µM in assay [7], above 100 µM in [8], 2.87 µM in assay [9] and 2.54 µM in assay [10].
In the case of `COc1ccc(-c2cc(-c3ccc(Cl)cc3)nc(SCCCCCCC(=O)NO)n2)cc1`, the GI50 is 0.59 µM in assay [1]; 1.46 µM in [2]; 1.88 µM in [3]; 1.41 µM in [4]; 2.16 µM in [5]; 1.37 µM in assay [6]. The GI50 was 2.12 µM in assay [7], 0.861 µM in assay [8], 1.35 µM in assay [9] and 1.14 µM in assay [10]. For the same molecule, the TGI was 3.66 µM in assay [1]; 7.72 µM in assay [2]; above 50 µM in assay [3]; 12.5 µM in [4]; 14 µM in assay [5]; 5.9 µM in [6]. For the same molecule, the TGI in assay [7] was determined as 11 µM; in assay [8], 14.4 µM; in assay [9] it was 7.16 µM; in [10], 2.52 µM.
On to `CC(C)=CCc1c(O)c(C(=O)CC(C)C)c(O)c2c(-c3ccccc3)cc(=O)oc12`, for which the GI50 was 12.8 µM in assay [1]; 7.11 µM in assay [2]; 6.52 µM in assay [3]; 9.7 µM in assay [4]; 7.31 µM in assay [5]; 9.59 µM in [6]. Also, the GI50 was 11.8 µM in assay [7], 5.11 µM in assay [8], 7.27 µM in assay [9] and 3.38 µM in assay [10]. The TGI in assay [1] is above 50 µM; in [2], above 50 µM; in [3] it was 30.2 µM; in assay [4], above 50 µM; in assay [5], above 50 µM; in assay [6] it was above 50 µM. In addition, the TGI in assay [7] is above 50 µM; in [8], above 50 µM; in assay [9], 43.3 µM; in assay [10], 12.3 µM.
As for `NC(N)=NC(N)=Nc1ccc(S(N)(=O)=O)cc1`, the TGI in assay [1], in assay [2], in assay [3], in assay [4], in assay [5] and in assay [6] was above 100 µM each time. For the same molecule, the TGI in assay [7], in assay [8], in [9] and in [10] was above 100 µM throughout.
